Experiment [1] concerns the target T1, ABL1(F317L)-phosphorylated (Homo sapiens, UniProt P00519, F317L).
T1 construct: purchased DiscoveRx KINOMEscan
As to the kind of experiment: KinomeScan. In kind it is binding. Particulars: read-out: % control.

Experiment [2] addresses T2, BMPR1A (Homo sapiens, UniProt P36894).
T2 construct: purchased DiscoveRx KINOMEscan
Put plainly: KinomeScan. In kind it is binding. Particulars: read-out: % control.

The target of experiment [3] is T3, DAPK2 (Homo sapiens, UniProt Q9UIK4).
T3 construct: purchased DiscoveRx KINOMEscan
T3 sequence (Q9UIK4 whole entry): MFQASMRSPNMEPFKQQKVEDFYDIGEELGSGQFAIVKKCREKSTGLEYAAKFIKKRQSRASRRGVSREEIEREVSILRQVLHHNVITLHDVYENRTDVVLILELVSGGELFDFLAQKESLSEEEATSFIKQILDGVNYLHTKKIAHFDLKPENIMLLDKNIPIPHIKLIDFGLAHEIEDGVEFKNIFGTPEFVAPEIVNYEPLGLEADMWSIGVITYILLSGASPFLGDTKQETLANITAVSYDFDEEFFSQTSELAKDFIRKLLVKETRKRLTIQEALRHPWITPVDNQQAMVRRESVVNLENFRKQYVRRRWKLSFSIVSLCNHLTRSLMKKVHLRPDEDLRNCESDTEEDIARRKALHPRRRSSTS
As to the kind of experiment: KinomeScan. In kind it is binding. Particulars: read-out: % control.

For experiment [4], the target named is T4, DDR2 (Homo sapiens, UniProt Q16832).
T4 construct: purchased DiscoveRx KINOMEscan
T4 sequence (Q16832 22-855): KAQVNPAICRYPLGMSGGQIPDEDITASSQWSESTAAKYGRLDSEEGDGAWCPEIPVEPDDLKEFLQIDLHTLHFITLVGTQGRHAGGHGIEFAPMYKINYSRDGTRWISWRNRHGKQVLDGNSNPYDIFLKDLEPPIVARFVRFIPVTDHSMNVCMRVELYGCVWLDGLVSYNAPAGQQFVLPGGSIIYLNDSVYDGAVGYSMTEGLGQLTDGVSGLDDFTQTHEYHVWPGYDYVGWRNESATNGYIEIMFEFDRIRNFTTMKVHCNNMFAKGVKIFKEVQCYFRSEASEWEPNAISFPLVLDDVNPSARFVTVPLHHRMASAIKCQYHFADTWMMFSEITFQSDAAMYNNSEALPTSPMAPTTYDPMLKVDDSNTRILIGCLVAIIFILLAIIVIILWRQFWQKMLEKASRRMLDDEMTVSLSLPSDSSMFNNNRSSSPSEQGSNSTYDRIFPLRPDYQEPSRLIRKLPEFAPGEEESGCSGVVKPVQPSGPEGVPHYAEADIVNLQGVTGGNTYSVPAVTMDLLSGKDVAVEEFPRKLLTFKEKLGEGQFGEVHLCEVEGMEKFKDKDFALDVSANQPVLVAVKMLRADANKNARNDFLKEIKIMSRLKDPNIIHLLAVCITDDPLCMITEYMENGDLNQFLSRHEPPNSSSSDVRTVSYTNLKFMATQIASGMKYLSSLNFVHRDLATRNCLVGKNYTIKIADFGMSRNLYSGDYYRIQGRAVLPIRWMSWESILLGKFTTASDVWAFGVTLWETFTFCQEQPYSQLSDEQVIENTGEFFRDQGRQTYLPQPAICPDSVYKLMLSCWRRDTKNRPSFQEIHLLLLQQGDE
As to the kind of experiment: KinomeScan. In kind it is binding. Particulars: read-out: % control.

Experiment [5] deals with T5, EGFR(L747-S752del, P753S) (Homo sapiens, UniProt P00533, DEL747-752/P753S).
T5 construct: purchased DiscoveRx KINOMEscan
T5 sequence (P00533 with tags, fused parts or gaps DEL747-752/P753S limits assumed): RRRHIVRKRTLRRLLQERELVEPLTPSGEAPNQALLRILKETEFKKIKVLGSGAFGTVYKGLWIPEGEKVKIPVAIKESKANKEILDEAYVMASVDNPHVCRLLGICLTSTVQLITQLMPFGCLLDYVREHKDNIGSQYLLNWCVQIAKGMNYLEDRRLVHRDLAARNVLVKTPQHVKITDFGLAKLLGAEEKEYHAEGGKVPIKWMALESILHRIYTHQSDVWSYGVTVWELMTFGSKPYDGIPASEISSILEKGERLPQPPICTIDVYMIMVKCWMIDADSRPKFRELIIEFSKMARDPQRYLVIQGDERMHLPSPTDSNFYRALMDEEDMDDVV
As to the kind of experiment: KinomeScan. In kind it is binding. Particulars: read-out: % control.

Experiment [6] deals with T6, EIF2AK1 (Homo sapiens, UniProt Q9BQI3).
T6 construct: purchased DiscoveRx KINOMEscan
T6 sequence (Q9BQI3 whole entry): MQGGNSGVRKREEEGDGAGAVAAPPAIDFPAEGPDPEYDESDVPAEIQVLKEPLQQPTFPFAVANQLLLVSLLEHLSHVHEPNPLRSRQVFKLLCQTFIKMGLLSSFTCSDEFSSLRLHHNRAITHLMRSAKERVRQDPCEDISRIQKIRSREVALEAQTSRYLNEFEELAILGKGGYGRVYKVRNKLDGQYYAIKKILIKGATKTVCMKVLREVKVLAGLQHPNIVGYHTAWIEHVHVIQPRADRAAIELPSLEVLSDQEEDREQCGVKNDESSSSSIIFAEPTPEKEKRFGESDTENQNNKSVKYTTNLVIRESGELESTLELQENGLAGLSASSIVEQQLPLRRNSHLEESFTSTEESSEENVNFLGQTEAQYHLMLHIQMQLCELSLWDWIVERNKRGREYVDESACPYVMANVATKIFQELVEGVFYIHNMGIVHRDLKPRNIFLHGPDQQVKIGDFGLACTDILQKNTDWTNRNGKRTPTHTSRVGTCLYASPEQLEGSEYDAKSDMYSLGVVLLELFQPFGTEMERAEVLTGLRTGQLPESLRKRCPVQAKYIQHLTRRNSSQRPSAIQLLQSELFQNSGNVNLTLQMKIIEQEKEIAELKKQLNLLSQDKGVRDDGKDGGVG
As to the kind of experiment: KinomeScan. Format: binding. Particulars: read-out: % control.

Experiment [7] has as its target T7, ERK3 (Homo sapiens, UniProt Q16659).
T7 construct: purchased DiscoveRx KINOMEscan
Put plainly: KinomeScan. Particulars: read-out: % control. In kind it is binding.

Experiment [8] has as its target T8, MEK3 (Homo sapiens, UniProt P46734).
T8 construct: purchased DiscoveRx KINOMEscan
As to the kind of experiment: KinomeScan. Format: binding. Particulars: read-out: % control.

Experiment [9] concerns the target T9, MINK (Homo sapiens, UniProt Q8N4C8).
T9 construct: purchased DiscoveRx KINOMEscan
As to the kind of experiment: KinomeScan. Particulars: read-out: % control. Format: binding.

In experiment [10] the target is T10, MYLK (Homo sapiens, UniProt Q15746).
T10 construct: purchased DiscoveRx KINOMEscan
Put plainly: KinomeScan. Format: binding. Particulars: read-out: % control.

Experiment [11] addresses T11, PCTK1 (Homo sapiens, UniProt Q00536).
T11 construct: purchased DiscoveRx KINOMEscan
As to the kind of experiment: KinomeScan. Particulars: read-out: % control. In kind it is binding.

Experiment [12] deals with T12, RET(V804M) (Homo sapiens, UniProt P07949, V804M).
T12 construct: purchased DiscoveRx KINOMEscan
T12 sequence (P07949 29-1114 V804M): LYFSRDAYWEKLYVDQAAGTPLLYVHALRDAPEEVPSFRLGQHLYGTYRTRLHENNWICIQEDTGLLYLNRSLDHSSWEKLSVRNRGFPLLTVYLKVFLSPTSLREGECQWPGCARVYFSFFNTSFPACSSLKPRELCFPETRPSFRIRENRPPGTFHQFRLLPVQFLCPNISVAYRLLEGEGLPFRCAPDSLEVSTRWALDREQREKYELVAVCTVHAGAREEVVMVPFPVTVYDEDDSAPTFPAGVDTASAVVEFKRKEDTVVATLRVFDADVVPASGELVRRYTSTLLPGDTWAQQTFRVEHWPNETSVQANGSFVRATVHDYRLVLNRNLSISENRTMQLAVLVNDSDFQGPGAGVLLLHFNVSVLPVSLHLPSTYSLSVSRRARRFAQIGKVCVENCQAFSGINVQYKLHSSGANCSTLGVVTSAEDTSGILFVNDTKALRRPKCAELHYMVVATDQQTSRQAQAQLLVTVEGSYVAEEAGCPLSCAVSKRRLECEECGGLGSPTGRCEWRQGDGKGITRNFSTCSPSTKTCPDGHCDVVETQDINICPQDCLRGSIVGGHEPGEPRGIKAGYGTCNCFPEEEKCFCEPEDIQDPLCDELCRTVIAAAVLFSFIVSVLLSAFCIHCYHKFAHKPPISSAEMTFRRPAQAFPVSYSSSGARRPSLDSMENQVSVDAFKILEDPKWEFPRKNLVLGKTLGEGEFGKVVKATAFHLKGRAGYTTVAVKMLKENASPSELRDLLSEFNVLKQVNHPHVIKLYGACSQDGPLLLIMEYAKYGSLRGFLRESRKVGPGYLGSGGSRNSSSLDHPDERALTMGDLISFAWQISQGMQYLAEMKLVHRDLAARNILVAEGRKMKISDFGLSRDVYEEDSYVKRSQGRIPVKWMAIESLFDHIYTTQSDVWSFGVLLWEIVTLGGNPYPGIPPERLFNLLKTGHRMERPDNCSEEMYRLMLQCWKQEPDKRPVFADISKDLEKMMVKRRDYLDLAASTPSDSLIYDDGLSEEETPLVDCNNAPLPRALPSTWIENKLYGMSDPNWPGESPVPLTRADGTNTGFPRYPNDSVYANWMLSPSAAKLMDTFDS
Put plainly: KinomeScan. Particulars: read-out: % control. Format: binding.

Experiment [13] has as its target T13, RIPK5 (Homo sapiens, UniProt Q6XUX3).
T13 construct: purchased DiscoveRx KINOMEscan
As to the kind of experiment: KinomeScan. In kind it is binding. Particulars: read-out: % control.

Experiment [14] addresses T14, RSK1(Kin.Dom.1-N-terminal) (Homo sapiens, UniProt Q15418).
T14 construct: RSK1(Kin.Dom.1-N-terminal); purchased DiscoveRx KINOMEscan
Put plainly: KinomeScan. Format: binding. Particulars: read-out: % control.

The target in experiment [15] is T15, TGFBR2 (Homo sapiens, UniProt P37173).
T15 construct: purchased DiscoveRx KINOMEscan
Put plainly: KinomeScan. In kind it is binding. Particulars: read-out: % control.

Experiment [16] concerns autophosphorylation of EGFR Y1068 in H1975 cell line. Put plainly: Signaling pathway examination (immunoblotting). Particulars: 10 nM, 4 hours. In kind it is cell-based, human. The source says:
(§1) We next examined the effects of CHMFL-EGFR-26 on EGFR mediated signaling pathways in NSCLC cell lines with different EGFR mutants. […] As expected, in the EGFR wt expressing NCSCL cell lines A549 and H1355, only autophosphorylation of EGFR was affected and none of the downstream mediators was inhibited.
(§2) Cells were then collected and lysed. Phospho-EGF Receptor, Phospho-EGF Receptor (Tyr1068), Stat3, Phospho-Stat3 (Tyr705), AKT, Phospho-AKT (Ser473), Phospho-AKT (Thr308), p44/42 MAPK (Erk1/2), Phospho-p44/42 MAPK (Erk1/2) (Thr202/ Tyr204), p70 S6 Kinase, Phospho-p70 S6 Kinase (Thr389), eIF4E, Phospho-eIF4E (Ser209), 4E-BP1, Phospho-4E-BP1 (Thr37/46) antibody (Cell Signaling Technology) were used for immunoblotting.
(In general: In western blotting, separated proteins are transferred to a membrane and probed.)

Experiment [17] has as its system p70S6K and eIF4E phosphorylations in H3255 cells. As to the kind of experiment: Signaling pathway examination (immunoblotting). Format: cell-based, human. Particulars: 30 nM, 4 hours.
Description: as §1, §2

T7 sequence (Q16659 whole entry): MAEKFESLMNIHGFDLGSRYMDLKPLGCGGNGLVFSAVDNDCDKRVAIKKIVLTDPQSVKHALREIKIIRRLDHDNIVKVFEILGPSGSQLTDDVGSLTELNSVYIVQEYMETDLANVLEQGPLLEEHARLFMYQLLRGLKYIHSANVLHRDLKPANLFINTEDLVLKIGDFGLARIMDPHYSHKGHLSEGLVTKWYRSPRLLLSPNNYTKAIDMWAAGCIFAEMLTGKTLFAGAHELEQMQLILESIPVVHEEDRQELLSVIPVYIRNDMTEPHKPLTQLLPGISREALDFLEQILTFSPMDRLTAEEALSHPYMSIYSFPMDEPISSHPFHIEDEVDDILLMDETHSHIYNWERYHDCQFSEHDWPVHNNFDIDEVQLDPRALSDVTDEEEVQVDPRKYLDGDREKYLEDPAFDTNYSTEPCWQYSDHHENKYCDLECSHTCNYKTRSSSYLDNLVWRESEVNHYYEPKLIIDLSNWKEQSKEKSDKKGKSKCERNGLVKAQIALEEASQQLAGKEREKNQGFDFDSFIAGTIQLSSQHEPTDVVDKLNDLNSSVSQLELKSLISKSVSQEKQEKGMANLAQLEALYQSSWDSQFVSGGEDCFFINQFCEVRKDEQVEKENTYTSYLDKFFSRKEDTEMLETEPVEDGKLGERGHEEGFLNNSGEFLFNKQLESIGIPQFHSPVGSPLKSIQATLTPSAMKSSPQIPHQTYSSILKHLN
T8 sequence (P46734 whole entry): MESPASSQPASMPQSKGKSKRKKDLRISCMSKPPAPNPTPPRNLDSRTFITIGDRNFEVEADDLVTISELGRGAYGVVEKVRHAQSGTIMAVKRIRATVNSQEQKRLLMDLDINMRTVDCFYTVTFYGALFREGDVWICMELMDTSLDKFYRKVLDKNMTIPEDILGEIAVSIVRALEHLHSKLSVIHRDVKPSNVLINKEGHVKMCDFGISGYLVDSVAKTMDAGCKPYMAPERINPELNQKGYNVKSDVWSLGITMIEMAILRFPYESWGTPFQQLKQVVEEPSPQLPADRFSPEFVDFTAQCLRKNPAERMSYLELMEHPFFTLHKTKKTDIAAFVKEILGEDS
T2 sequence (P36894 24-532): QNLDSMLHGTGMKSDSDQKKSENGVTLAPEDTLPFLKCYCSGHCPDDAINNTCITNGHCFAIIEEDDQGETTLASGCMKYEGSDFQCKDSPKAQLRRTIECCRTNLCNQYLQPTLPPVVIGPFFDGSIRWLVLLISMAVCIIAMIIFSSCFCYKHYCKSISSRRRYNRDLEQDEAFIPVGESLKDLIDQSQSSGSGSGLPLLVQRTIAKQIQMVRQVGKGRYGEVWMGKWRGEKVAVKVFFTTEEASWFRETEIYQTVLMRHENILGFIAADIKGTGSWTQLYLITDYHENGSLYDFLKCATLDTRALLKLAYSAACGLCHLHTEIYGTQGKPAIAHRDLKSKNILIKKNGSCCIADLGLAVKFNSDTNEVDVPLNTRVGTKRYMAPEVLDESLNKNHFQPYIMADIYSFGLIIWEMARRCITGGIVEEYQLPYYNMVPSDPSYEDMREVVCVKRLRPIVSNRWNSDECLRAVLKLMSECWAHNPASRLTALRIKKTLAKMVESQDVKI

Take `C=CC(=O)N1CCC[C@@H](n2nc(-c3ccc(OCc4cccc(C)n4)c(Cl)c3)c3c(N)ncnc32)C1` [CHMFL-EGFR-26]: the remaining binding at 1 µM in experiment [1] came to 95%; in experiment [2] it was 100%; in experiment [3] it was 100%; in experiment [4], 90%; in experiment [5], 20%; in [6], 100%. Besides, the remaining binding at 1 µM in [7] came to 100%; in [8] it was 98%; in [9], 29%; in experiment [10], 100%; in [11], 100%; in [12], 93%. Also, the remaining binding at 1 µM came to 13% in experiment [13], 97% in experiment [14] and 100% in experiment [15]. In addition, in [16], the “autophosphorylation of EGFR Y1068” value is recorded as “almost completely suppress”. For the same compound, in experiment [17], the “mTOR-p70S6K and eIF4E phosphorylations” value was “completely blocked”.
